# Reference: patent publication US11285125B2, “Oxidative retinal diseases” (priority 2011, dated 2022)
# Like-named read-outs stand apart in the source and are kept apart here.
# What was measured:
# [1] = system: coq null mutants (Q-less yeast); conditions: for viability of coq null mutants after fatty acid treatment: 200 μM fatty acid, plate dilution assay; for viability of cells by quantitative colony counting: colony counting at 1, 2 and 4 h
# Protocol: Yeast coq3, coq7 and coq9 null mutants were prepared in the W303 yeast genetic background (WT). […] Cells were washed twice with sterile water and resuspended in phosphate buffer (0.10 M sodium phosphate, pH 6.2, 0.2% dextrose) to an OD600 nm=0.2. Samples were removed and 1:5 serial dilutions starting at 0.20 OD/ml were plated on YPD plate medium, to provide a zero time untreated control (shown in top left panel). The designated fatty acids were added to 200 μM final concentration to 20 ml of yeast in phosphate buffer. At 2 h, 4 h, and 16 h samples were removed, 1:5 serial dilutions prepared, and spotted onto YPD plate medium. Pictures were taken after 2 days of growth at 30° C. This panel is representative of two independent assays, performed on different days.
# The fatty acid sensitive assay was performed as described in FIG. 6-1, except that 100 μl aliquots were removed at 1, 2, and 4 h and, following dilution, spread onto YPD plates. Pictures were taken after 2 to 2.5 days, and the number of colonies counted. Yeast strains include Wild type (circles), atp2 (triangles), or coq3 (squares); Fatty acid treatments include oleic C18:1 (solid line), linolenic, C18:3, n-3 (dashed line) or 11,11,14,14-D4-linolenic, C18:3, n-3, (dotted line).
# A plate dilution assay can be used to assess PUFA sensitivity. This assay can be performed by spotting serial five-fold dilutions of aliquots onto YPD plate media (FIG. 3). The sensitivity of the different strains can be observed by visual inspection of the density of cells in each spot.
# [2] = Kinetics of O2 consumption during non-enzymatic chain oxidation in chlorobenzene initiated by AMVN; format: physicochemical; conditions: for rate of oxidation, ROX: 0.71 M in chlorobenzene, 40 mM AMVN, 37° C.
# Protocol: FIG. 7. Kinetics of O2 consumption accompanied the oxidation of 0.71 M LA (plots 1 and 2) and 0.71 M D2-LA (plot 3) in chlorobenzene initiated by 40 mM AMVN at 37° C. Plot 2-0.23 mM HPMC was added to 0.71 M LA.
# The kinetics of oxygen consumption during the oxidation of LA and D2-LA was studied with a glass capillary microvolumeter (FIG. 7). The rate of oxidation, ROX, was measured as a slope of [O2] traces. The rate of initiation, RIN, was determined by the inhibitor method with HPMC (“6-hydroxy-2,2,5,7,8-pentamethylbenzochroman”) as a reference inhibitor. RIN was calculated from the induction period of inhibited oxidation, tIND: RIN=2·[HPMC]/tIND. […] When the process was inhibited by 0.23 mM chain-breaking antioxidant HPMC, the duration of the induction period, tIND, was about 48 min, with the RIN value of around 0.16×10^−6 M/s. […] The latter precludes a direct determination of RIN. […] An estimated kinetic isotope effect (“KIE”), from comparison of ROX for LA and D2-LA, was around 6.1×10^−6/0.18×10^−6≈35. A similar KIE was determined during the oxidation of LA and 11,11-d2-LA in Triton X-100 aqueous micelles (data not shown). For comparative purposes, the theoretical KIE is 6.9 at 25° C. See Carpenter, “Determination of Organic Reaction Mechanisms” (John Wiley & Sons, 1984), p. 89.
# [3] = Rate of oxidation of mixtures of LA and D2-LA in chlorobenzene; format: physicochemical
# Protocol: FIG. 8. Dependence of the rate of oxidation of the mixture of LA and D2-LA in chlorobenzene solution on mixture composition. Conditions: [LA]+[11,11-d2-LA]=0.775 M; [AMVN]=0.0217 M; 37° C. RIN=(1.10±0.08)×10^−7 M/sec.
# To simulate the likely in vivo conditions, the kinetics of the oxidation of the mixtures of D2-LA and LA were studied (FIG. 8). In the experiments, the concentration of LA plus 11,11-d2-LA was 0.775 M; the concentration of AMVN was 0.0217 M; and the reactions were carried out at 37° C. The results afforded an RIN of 1.10±0.08×10^−7 M/sec.
# Wild-type yeast cells = assay: Copper-stress lipid peroxidation assay (C11-Bodipy 581/591 fluorescence); format: cell-based, S. cerevisiae; conditions: 200 μM fatty acid 2 hours, then 50 μM CuSO4 60 min
# Protocol: Wild-type yeast cells were treated as described above except the yeast were treated with 200 μM of the designated fatty acid for 2 hours, washed with sterile water, and were either not treated (triangles) or treated with 50 μM CuSO4 (squares) at room temperature. After 60 min of copper treatment cells were treated with 8 μM C11-Bodipy 581/591 for 30 min at room temperature. Four 100 μl aliquots were plated in a 96-well plate and the fluorescence was measured.
# [4] = system: coq null mutants (Q-less yeast); conditions: cited from earlier work; for sensitivity of Q-less yeast to fatty acid treatment: compared with wild-type parental strain
# [5] = 70 kg person; cited from earlier work
# wild-type yeast (W303) = conditions: four hour treatment, strain W303-1B background; cited from earlier work
# Protocol for Q-less coq3 yeast: Wild-type, yeast Q-less coq3, or respiratory deficient con 1 null mutants were incubated in the presence of 200 μM of LA and D2-LA at different ratios of PUFAs. Serial dilutions (1:5) starting at 0.2 OD/ml were spotted on YPD solid plate medium. A zero-time untreated control is shown on the top left. Growth at 30° C.
# Wild-type, yeast Q-less coq3, or respiratory deficient con 1 null mutants were incubated in the presence of 200 μM of ALA and D4-LA at different ratios of PUFAs. Serial dilutions (1:5) starting at 0.2 OD/ml were spotted on YPD solid plate medium. Growth at 30° C.
# Wild-type, yeast Q-less coq3, or respiratory deficient cor1 null mutants were incubated in the presence of 200 μM of LA and D2-LA at different ratios of PUFAs, as indicated in FIG. 9. Serial dilutions (1:5) starting at 0.20D/ml were spotted on YPD solid plate medium. […] Growth was at 30° C.
# The experimental protocol described for Example 14 was also reproduced in vivo using Q-less coq3 yeast strains (FIG. 10) and different ratios of ALA to D4-ALA. Wild-type, yeast Q-less coq3, or respiratory deficient cor1 null mutants were incubated in the presence of 200 μM of ALA and D4-Lnn (Linolenic acid) at different ratios of PUFAs, as indicated in FIG. 10. Serial dilutions (1:5) starting at 0.2 OD/ml were spotted on YPD solid plate medium. Growth was at 30° C.
compound,measurement,setting,value
"[2H]C(/C=C\CCCCC)/C=C\CCCCCCCC(=O)O (stereo not shown) [11,11-D,H-LA, [11-^2H]-linoleic acid]",loss in cell viability,"Q-less coq3 yeast; after 3 hours of treatment, data not shown",no detectable loss in cell viability
"[2H]C([2H])(/C=C\C/C=C\CC)C/C=C\CCCCCCC(=O)O [11, 11-D2-linolenic acid, 11,11-Dideutero-cis,cis,cis-octadeca-8,12,15-trienoic acid]",viability of coq null mutants after fatty acid treatment,[1],comparable protection
"[2H]C([2H])(/C=C\CC)/C=C\CC/C=C\CCCCCCC(=O)O [14, 14-D2-linolenic acid, 14,14-Dideutero-cis,cis,cis-octadeca-8,12,15-trienoic acid]",viability of coq null mutants after fatty acid treatment,[1],comparable protection
"[2H]C([2H])(/C=C\CCCCC)/C=C\CCCCCCCC(=O)O [D2-LA, 11,11-Dideutero-cis,cis-9,12-Octadecadienoic acid]","length of the kinetic chain, ν=ROX/RIN",[2],≈ 1.1
same,"rate of oxidation, ROX",[2],1.8e-07 M/s
same,effect of addition of HPMC on oxidation,[2]; data not shown,did not result in the decrease in ROX and the appearance of any detectable induction period
same,estimated kinetic isotope effect (KIE),[2]; from comparison of ROX for LA and D2-LA,≈ 35
same,effect in mixture with non-deuterated methyl linoleate,[3]; data not shown,qualititatively similar effect
same,effect of D2-LA on autoxidation of non-deuterated LA,[3]; mixtures with LA,‘protects’ the non-deuterated LA against autoxidation
same,levels of lipid peroxidation,Wild-type yeast cells,lower levels of lipid peroxidation similar to yeast not treated with PUFA
same,minimal amount of D2-LA to cancel the toxicity of LA,Q-less coq3 yeast; 200 μM total LA and D2-LA at different ratios,10-15%
"[2H]C([2H])(/C=C\CC)/C=C\C([2H])([2H])/C=C\CCCCCCCC(=O)O [D4-ALA, 11,11,14,14-Tetradeutero-cis,cis,cis-9,12,15-Octadecatrienoic acid]",viability of coq null mutants after fatty acid treatment,[1]; listed as D4-linolenic acid,resistant to PUFA-mediated cell killing
same,viability of cells by quantitative colony counting,[1],similar
same,minimal amount of deuterated Lnn to cancel the toxicity of ALA,Q-less coq3 yeast; 200 μM total ALA and D4-Lnn at different ratios,15-20%
"CCCCC/C=C\C/C=C\CCCCCCCC(=O)O [LA, cis,cis-9,12-Octadecadienoic acid, reference compound]","length of the kinetic chain, ν=ROX/RIN",[2],38±3
same,"rate of oxidation, ROX",[2],6.1e-06 M/s
same,"rate of initiation, RIN","[2]; calculated from induction period, RIN=2·[HPMC]/tIND",around 0.16×10^−6 M/s
same,calculated oxidizability,[2]; n=5,0.0215±0.008 M^−0.5 s^−0.5
CCCCC/C=C\C/C=C\C/C=C\C/C=C\CCCC(=O)O [arachidonic acid],sensitivity of Q-less yeast to fatty acid treatment,[4],hypersensitive
[2H]O[2H] [heavy water],amount that might be drunk without serious consequences,[5],4.8 L
"CC/C=C\C/C=C\C/C=C\CCCCCCCC(=O)O [linolenic acid, cis,cis,cis-9,12,15-Octadecatrienoic acid]",viability of coq null mutants after fatty acid treatment,[1],dramatic loss of viability
same,"viable Q-less (coq2, coq3, and coq5) yeast mutants",[4]; four hour treatment,Less than 1%
same,wild-type cells that remain viable,wild-type yeast (W303),70%
"CCCCCCCC/C=C\CCCCCCCC(=O)O [oleic acid, reference compound]",viability of cells by quantitative colony counting,[1],similar
same,sensitivity of Q-less yeast to fatty acid treatment,[4],behave the same as the wild-type parental strain
